In brackets after ≈: the same amount, converted by molar mass.
test system: Mycobacterium tuberculosis; assay: Antimycobacterial activity against multidrug-resistant Mycobacterium tuberculosis 09710 by rapid direct susceptibility test; type: functional

| SMILES | MIC |
| --- | --- |
| CCO/N=C1\C(=O)N(CCN2CCC[C@H]3CN(c4c(F)cc5c(=O)c(C(=O)O)cn(C6CC6)c5c4OC)C[C@H]32)c2ccc(F)cc21 | 0.39 to 16 µg/mL (≈ 0.614 to 25.2 µM) |
| COc1c(N2C[C@@H]3CCCN(CN4C(=O)/C(=N\NC(N)=S)c5cc(F)ccc54)[C@@H]3C2)c(F)cc2c(=O)c(C(=O)O)cn(C3CC3)c12 | 0.39 to 16 µg/mL (≈ 0.598 to 24.6 µM) |
| CO/N=C1\C(=O)N(CN2CCC[C@H]3CN(c4c(F)cc5c(=O)c(C(=O)O)cn(C6CC6)c5c4OC)C[C@H]32)c2ccc(F)cc21 | 0.39 to 16 µg/mL (≈ 0.642 to 26.3 µM) |
| COc1c(N2C[C@@H]3CCCN(CCN4C(=O)/C(=N\NC(N)=O)c5ccccc54)[C@@H]3C2)c(F)cc2c(=O)c(C(=O)O)cn(C3CC3)c12 | 0.39 to 16 µg/mL (≈ 0.617 to 25.3 µM) |
| CO/N=C1\C(=O)N(CCN2CCC[C@H]3CN(c4c(F)cc5c(=O)c(C(=O)O)cn(C6CC6)c5c4OC)C[C@H]32)c2cc(F)ccc21 | 0.39 to 16 µg/mL (≈ 0.627 to 25.7 µM) |
| CCO/N=C1\C(=O)N(CCN2CCC[C@H]3CN(c4c(F)cc5c(=O)c(C(=O)O)cn(C6CC6)c5c4OC)C[C@H]32)c2ccccc21 | 0.39 to 16 µg/mL (≈ 0.631 to 25.9 µM) |
| COc1c(N2C[C@@H]3CCCN(CN4C(=O)C(=O)c5cc(F)ccc54)[C@@H]3C2)c(F)cc2c(=O)c(C(=O)O)cn(C3CC3)c12 | 0.39 to 16 µg/mL (≈ 0.674 to 27.7 µM) |
| COc1c(N2C[C@@H]3CCCN(CCN4C(=O)/C(=N\NC(N)=S)c5cc(F)ccc54)[C@@H]3C2)c(F)cc2c(=O)c(C(=O)O)cn(C3CC3)c12 | 0.39 to 16 µg/mL (≈ 0.586 to 24 µM) |
| CCO/N=C1\C(=O)N(CN2CCC[C@H]3CN(c4c(F)cc5c(=O)c(C(=O)O)cn(C6CC6)c5c4OC)C[C@H]32)c2ccc(F)cc21 | 0.39 to 16 µg/mL (≈ 0.627 to 25.7 µM) |
| COc1c(N2C[C@@H]3CCCN(CN4C(=O)/C(=N\NC(N)=O)c5cc(F)ccc54)[C@@H]3C2)c(F)cc2c(=O)c(C(=O)O)cn(C3CC3)c12 | 0.39 to 16 µg/mL (≈ 0.614 to 25.2 µM) |
| COc1c(N2C[C@@H]3CCCN(CCN4C(=O)/C(=N\NC(N)=O)c5cc(F)ccc54)[C@@H]3C2)c(F)cc2c(=O)c(C(=O)O)cn(C3CC3)c12 | 0.39 to 16 µg/mL (≈ 0.6 to 24.6 µM) |
| COc1c(N2C[C@@H]3CCCN(CCN4C(=O)C(=O)c5cc(F)ccc54)[C@@H]3C2)c(F)cc2c(=O)c(C(=O)O)cn(C3CC3)c12 | 0.39 to 16 µg/mL (≈ 0.658 to 27 µM) |
| COc1c(N2C[C@@H]3CCCN(CN4C(=O)/C(=N\O)c5ccccc54)[C@@H]3C2)c(F)cc2c(=O)c(C(=O)O)cn(C3CC3)c12 | 0.39 to 16 µg/mL (≈ 0.678 to 27.8 µM) |
| COc1c(N2C[C@@H]3CCCN(CN4C(=O)C(=O)c5ccccc54)[C@@H]3C2)c(F)cc2c(=O)c(C(=O)O)cn(C3CC3)c12 | 0.39 to 16 µg/mL (≈ 0.696 to 28.5 µM) |
| COc1c(N2C[C@@H]3CCCN(CCN4C(=O)/C(=N\NC(N)=S)c5ccccc54)[C@@H]3C2)c(F)cc2c(=O)c(C(=O)O)cn(C3CC3)c12 | 0.39 to 16 µg/mL (≈ 0.602 to 24.7 µM) |
| COc1c(N2C[C@@H]3CCCN(CCN4C(=O)C(=O)c5ccccc54)[C@@H]3C2)c(F)cc2c(=O)c(C(=O)O)cn(C3CC3)c12 | 0.39 to 16 µg/mL (≈ 0.679 to 27.8 µM) |
| CO/N=C1\C(=O)N(CN2CCC[C@H]3CN(c4c(F)cc5c(=O)c(C(=O)O)cn(C6CC6)c5c4OC)C[C@H]32)c2ccccc21 | 0.39 to 16 µg/mL (≈ 0.661 to 27.1 µM) |
| COc1c(N2C[C@@H]3CCCN(CN4C(=O)/C(=N\NC(N)=S)c5ccccc54)[C@@H]3C2)c(F)cc2c(=O)c(C(=O)O)cn(C3CC3)c12 | 0.39 to 16 µg/mL (≈ 0.615 to 25.2 µM) |
| CO/N=C1\C(=O)N(CCN2CCC[C@H]3CN(c4c(F)cc5c(=O)c(C(=O)O)cn(C6CC6)c5c4OC)C[C@H]32)c2ccccc21 | 0.39 to 16 µg/mL (≈ 0.646 to 26.5 µM) |
| COc1c(N2C[C@@H]3CCCN(CCN4C(=O)/C(=N\O)c5cc(F)ccc54)[C@@H]3C2)c(F)cc2c(=O)c(C(=O)O)cn(C3CC3)c12 | 0.39 to 16 µg/mL (≈ 0.642 to 26.3 µM) |
| COc1c(N2C[C@@H]3CCCN(CN4C(=O)/C(=N\O)c5cc(F)ccc54)[C@@H]3C2)c(F)cc2c(=O)c(C(=O)O)cn(C3CC3)c12 | 0.39 to 16 µg/mL (≈ 0.657 to 27 µM) |
| CCO/N=C1\C(=O)N(CN2CCC[C@H]3CN(c4c(F)cc5c(=O)c(C(=O)O)cn(C6CC6)c5c4OC)C[C@H]32)c2ccccc21 | 0.39 to 16 µg/mL (≈ 0.646 to 26.5 µM) |
| COc1c(N2C[C@@H]3CCCN(CCN4C(=O)/C(=N\O)c5ccccc54)[C@@H]3C2)c(F)cc2c(=O)c(C(=O)O)cn(C3CC3)c12 | 0.39 to 16 µg/mL (≈ 0.661 to 27.1 µM) |
| COc1c(N2C[C@@H]3CCCN(CN4C(=O)/C(=N\NC(N)=O)c5ccccc54)[C@@H]3C2)c(F)cc2c(=O)c(C(=O)O)cn(C3CC3)c12 | 0.39 to 16 µg/mL (≈ 0.631 to 25.9 µM) |
| COc1c(N2C[C@@H]3CCCN[C@@H]3C2)c(F)cc2c(=O)c(C(=O)O)cn(C3CC3)c12 [MOXIFLOXACIN] | 0.1 to 1 µg/mL (≈ 0.249 to 2.49 µM) |

test system: Mycobacterium tuberculosis; assay: Antimycobacterial activity against isoniazid/rifampicin/ethambutol-resistant Mycobacterium tuberculosis after 3 to 7 days by rapid direct susceptibility test; type: functional

| SMILES | MIC |
| --- | --- |
| NC(=S)N/N=C1/C(=O)N(CCCN2CCN(c3cc4c(cc3F)c(=O)c(C(=O)O)cn4C3CC3)CC2)c2ccccc21 | 0.1 to 64 µg/mL (≈ 0.169 to 108 µM) |
| O=C(O)c1cn(C2CC2)c2cc(N3CCN(CCCN4C(=O)/C(=N/O)c5ccccc54)CC3)c(F)cc2c1=O | 0.1 to 64 µg/mL (≈ 0.187 to 120 µM) |
| Cc1ccc2c(c1)/C(=N\NC(N)=O)C(=O)N2CCCN1CCN(c2cc3c(cc2F)c(=O)c(C(=O)O)cn3C2CC2)CC1 | 0.1 to 64 µg/mL (≈ 0.17 to 109 µM) |
| Cc1ccc2c(c1)/C(=N\NC(N)=S)C(=O)N2CCCN1CCN(c2cc3c(cc2F)c(=O)c(C(=O)O)cn3C2CC2)CC1 | 0.1 to 64 µg/mL (≈ 0.165 to 106 µM) |
| Cc1ccc2c(c1)/C(=N\O)C(=O)N2CCCN1CCN(c2cc3c(cc2F)c(=O)c(C(=O)O)cn3C2CC2)CC1 | 0.1 to 64 µg/mL (≈ 0.183 to 117 µM) |
| NC(=O)N/N=C1/C(=O)N(CCCN2CCN(c3cc4c(cc3F)c(=O)c(C(=O)O)cn4C3CC3)CC2)c2ccccc21 | 0.1 to 64 µg/mL (≈ 0.174 to 111 µM) |

test system: Mycobacterium tuberculosis; assay: Antimycobacterial activity against multidrug-resistant Mycobacterium tuberculosis after 3 to 7 days by rapid direct susceptibility test; type: functional

| SMILES | MIC |
| --- | --- |
| CO/N=C1/C(=O)N(CCn2cc(CN3CCC[C@H]4CN(c5c(F)cc6c(=O)c(C(=O)O)cn(C7CC7)c6c5OC)C[C@H]43)nn2)c2ccccc21 | 0.1 to 0.78 µg/mL (≈ 0.146 to 1.14 µM) |
| CCO/N=C1/C(=O)N(CCn2cc(CN3CCC[C@H]4CN(c5c(F)cc6c(=O)c(C(=O)O)cn(C7CC7)c6c5OC)C[C@H]43)nn2)c2ccccc21 | 0.1 to 0.78 µg/mL (≈ 0.143 to 1.12 µM) |
| COc1c(N2C[C@@H]3CCCN(Cc4cn(CCN5C(=O)/C(=N/NC(N)=O)c6ccccc65)nn4)[C@@H]3C2)c(F)cc2c(=O)c(C(=O)O)cn(C3CC3)c12 | 0.1 to 0.78 µg/mL (≈ 0.14 to 1.09 µM) |
| COc1c(N2C[C@@H]3CCCN(Cc4cn(CCN5C(=O)C(=O)c6ccccc65)nn4)[C@@H]3C2)c(F)cc2c(=O)c(C(=O)O)cn(C3CC3)c12 | 0.1 to 0.78 µg/mL (≈ 0.153 to 1.19 µM) |
| COc1c(N2C[C@@H]3CCCN(Cc4cn(CCN5C(=O)/C(=N/O)c6ccccc65)nn4)[C@@H]3C2)c(F)cc2c(=O)c(C(=O)O)cn(C3CC3)c12 | 0.1 to 0.78 µg/mL (≈ 0.149 to 1.16 µM) |
| COc1c(N2C[C@@H]3CCCN(Cc4cn(CCN5C(=O)C(=O)c6cc(Br)ccc65)nn4)[C@@H]3C2)c(F)cc2c(=O)c(C(=O)O)cn(C3CC3)c12 | 0.1 to 0.78 µg/mL (≈ 0.136 to 1.06 µM) |
| CO/N=C1/C(=O)N(CCn2cc(CN3CCC[C@H]4CN(c5c(F)cc6c(=O)c(C(=O)O)cn(C7CC7)c6c5OC)C[C@H]43)nn2)c2ccc(Br)cc21 | 0.1 to 0.78 µg/mL (≈ 0.131 to 1.02 µM) |
| CCO/N=C1/C(=O)N(CCn2cc(CN3CCC[C@H]4CN(c5c(F)cc6c(=O)c(C(=O)O)cn(C7CC7)c6c5OC)C[C@H]43)nn2)c2ccc(Br)cc21 | 0.1 to 0.78 µg/mL (≈ 0.129 to 1 µM) |
| COc1c(N2C[C@@H]3CCCN(Cc4cn(CCN5C(=O)/C(=N/O)c6cc(Br)ccc65)nn4)[C@@H]3C2)c(F)cc2c(=O)c(C(=O)O)cn(C3CC3)c12 | 0.1 to 0.78 µg/mL (≈ 0.133 to 1.04 µM) |
| CO/N=C1/C(=O)N(CCCN2CCN(c3c(F)cc4c(=O)c(C(=O)O)cn(C5CC5)c4c3OC)CC2C)c2ccc(F)cc21 (centres undefined) | 0.25 µg/mL (≈ 0.41 µM) |
| COc1c(N2C[C@@H]3CCCN(Cc4cn(CCN5C(=O)/C(=N/NC(N)=O)c6cc(Br)ccc65)nn4)[C@@H]3C2)c(F)cc2c(=O)c(C(=O)O)cn(C3CC3)c12 | 0.1 to 0.78 µg/mL (≈ 0.126 to 0.985 µM) |
| COc1c(N2CCNC(C)C2)c(F)cc2c(=O)c(C(=O)O)cn(C3CC3)c12 (centres undefined) [GATIFLOXACIN] | 1 µg/mL (≈ 2.66 µM) |
| NNC(=O)c1ccncc1 [ISONIAZID] | > 128 µg/mL |
| COc1c(N2C[C@@H]3CCCN[C@@H]3C2)c(F)cc2c(=O)c(C(=O)O)cn(C3CC3)c12 [MOXIFLOXACIN] | 0.12 µg/mL (≈ 0.299 µM) |
| CO[C@H]1/C=C/O[C@@]2(C)Oc3c(C)c(O)c4c(O)c(c(/C=N/N5CCN(C)CC5)c(O)c4c3C2=O)NC(=O)/C(C)=C\C=C\[C@H](C)[C@H](O)[C@@H](C)[C@@H](O)[C@@H](C)[C@H](OC(C)=O)[C@@H]1C [RIFAMPIN] | 32 to 64 µg/mL (≈ 38.9 to 77.8 µM) |

test system: Mycobacterium tuberculosis; assay: Potency index, ratio of gatifloxacin MIC to test compound MIC for multidrug-resistant Mycobacterium tuberculosis; type: functional

| SMILES | Ratio |
| --- | --- |
| CO/N=C1/C(=O)N(CCCN2CCN(c3c(F)cc4c(=O)c(C(=O)O)cn(C5CC5)c4c3OC)CC2C)c2ccc(F)cc21 (centres undefined) | >=4 - 512 |

test system: Mycobacterium tuberculosis; assay: Potency index, ratio of rifampicin MIC to test compound MIC for multidrug-resistant Mycobacterium tuberculosis; type: functional

| SMILES | Ratio |
| --- | --- |
| CO/N=C1/C(=O)N(CCCN2CCN(c3c(F)cc4c(=O)c(C(=O)O)cn(C5CC5)c4c3OC)CC2C)c2ccc(F)cc21 (centres undefined) | >=4 - 512 |

test system: Mycobacterium tuberculosis; assay: Potency index, ratio of isoniazid MIC to test compound MIC for multidrug-resistant Mycobacterium tuberculosis; type: functional

| SMILES | Ratio |
| --- | --- |
| CO/N=C1/C(=O)N(CCCN2CCN(c3c(F)cc4c(=O)c(C(=O)O)cn(C5CC5)c4c3OC)CC2C)c2ccc(F)cc21 (centres undefined) | >=4 - 512 |

From ChEMBL document CHEMBL4382234, “Fluoroquinolone-isatin hybrids and their biological activities” (Eur J Med Chem, 2019)
